# Experimental data reported in PubChem BioAssay AID2060908 (Molecular Pharmacology Branch, DTP, NCI, 2025).
# Tested on: 186277-243-T-J2-PDC complex spheroids, viability
# Assay: Anticancer human tumor 186277-243-T-J2-PDC patient-derived colon adenocarcinoma cell line growth inhibition [RAS]
# Conditions: for IC50: curve of first compound; for viability, T/C: stronger effect = lower value
# Outline: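 Agents were tested in combination matrices in half-log decrements from a top concentration at or near clinical Cmax (10 microM if undetermined). Targets were multi-cell spheroids of tumour lines plus HUVEC and MSC stromal cells.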
# [1] = second compound 0.000949 µM, first compound 0.00316 µM
# [2] = second compound 0.000949 µM, first compound 0.01 µM
# [3] = second compound 0.000949 µM, first compound 0.0316 µM
# [4] = second compound 0.000949 µM, first compound 0.1 µM
# [5] = second compound 0.000949 µM, first compound 0.316 µM
# [6] = second compound 0.000949 µM, first compound 1 µM
# [7] = second compound 0.003 µM, first compound 0.00316 µM
# [8] = second compound 0.003 µM, first compound 0.01 µM
# [9] = second compound 0.003 µM, first compound 0.0316 µM
# [10] = second compound 0.003 µM, first compound 0.1 µM
# [11] = second compound 0.003 µM, first compound 0.316 µM
# [12] = second compound 0.003 µM, first compound 1 µM
# [13] = second compound 0.00949 µM, first compound 0.00316 µM
# [14] = second compound 0.00949 µM, first compound 0.01 µM
# [15] = second compound 0.00949 µM, first compound 0.0316 µM
# [16] = second compound 0.00949 µM, first compound 0.1 µM
# [17] = second compound 0.00949 µM, first compound 0.316 µM
# [18] = second compound 0.00949 µM, first compound 1 µM
# [19] = second compound 0.03 µM, first compound 0.00316 µM
# [20] = second compound 0.03 µM, first compound 0.01 µM
# [21] = second compound 0.03 µM, first compound 0.0316 µM
# [22] = second compound 0.03 µM, first compound 0.1 µM
# [23] = second compound 0.03 µM, first compound 0.316 µM
# [24] = second compound 0.03 µM, first compound 1 µM
# [25] = second compound 0.0949 µM, first compound 0.00316 µM
# [26] = second compound 0.0949 µM, first compound 0.01 µM
# [27] = second compound 0.0949 µM, first compound 0.0316 µM
# [28] = second compound 0.0949 µM, first compound 0.1 µM
# [29] = second compound 0.0949 µM, first compound 0.316 µM
# [30] = second compound 0.0949 µM, first compound 1 µM
# [31] = second compound 0.3 µM, first compound 0.00316 µM
# [32] = second compound 0.3 µM, first compound 0.01 µM
# [33] = second compound 0.3 µM, first compound 0.0316 µM
# [34] = second compound 0.3 µM, first compound 0.1 µM
# [35] = second compound 0.3 µM, first compound 0.316 µM
# [36] = second compound 0.3 µM, first compound 1 µM
# 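Further: spheroids exposed to compounds for 7 days before viability read.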
structure (smiles),measurement,setting,value
C=CC(=O)N1CCN(c2nc(OCC3CCCN3C)nc3c(F)c(-c4nc(N)cc(C)c4C(F)(F)F)c(Cl)cc23)C(C)C1 (stereo not drawn) + CCn1c(-c2cc(N3CCN(C)CC3)cnc2C(C)OC)c2c3cc(ccc31)-c1csc(n1)CC(NC(=O)C1CC1C)C(=O)N1CCCC(N1)C(=O)OCC(C)(C)C2,IC50,second compound 0.000949 µM,> 1000 nM
same,IC50,second compound 0.003 µM,> 1000 nM
same,IC50,second compound 0.00949 µM,< 3.16 nM
same,IC50,second compound 0.03 µM,< 3.16 nM
same,IC50,second compound 0.0949 µM,< 3.16 nM
same,IC50,second compound 0.3 µM,< 3.16 nM
same,"viability, T/C",[1],100%
same,"viability, T/C",[2],95.3%
same,"viability, T/C",[3],97.8%
same,"viability, T/C",[4],82%
same,"viability, T/C",[5],96%
same,"viability, T/C",[6],95.7%
same,"viability, T/C",[7],93.8%
same,"viability, T/C",[8],79%
same,"viability, T/C",[9],74.8%
same,"viability, T/C",[10],100%
same,"viability, T/C",[11],90.7%
same,"viability, T/C",[12],91.3%
same,"viability, T/C",[13],50.9%
same,"viability, T/C",[14],43.2%
same,"viability, T/C",[15],45.5%
same,"viability, T/C",[16],47%
same,"viability, T/C",[17],49.9%
same,"viability, T/C",[18],42.9%
same,"viability, T/C",[19],15.2%
same,"viability, T/C",[20],15.7%
same,"viability, T/C",[21],14%
same,"viability, T/C",[22],15.6%
same,"viability, T/C",[23],16.7%
same,"viability, T/C",[24],13.9%
same,"viability, T/C",[25],7.43%
same,"viability, T/C",[26],6.42%
same,"viability, T/C",[27],6.99%
same,"viability, T/C",[28],6.92%
same,"viability, T/C",[29],7.72%
same,"viability, T/C",[30],6.75%
same,"viability, T/C",[31],6.06%
same,"viability, T/C",[32],5.29%
same,"viability, T/C",[33],6.03%
same,"viability, T/C",[34],5.77%
same,"viability, T/C",[35],6.02%
same,"viability, T/C",[36],5.32%
CC1(C)CCC(Nc2ncc(C(F)(F)F)c(-c3c[nH]c4c(P(C)(C)=O)c(C#N)ccc34)n2)CN1 (stereo not drawn) + CCn1c(-c2cc(N3CCN(C)CC3)cnc2C(C)OC)c2c3cc(ccc31)-c1csc(n1)CC(NC(=O)C1CC1C)C(=O)N1CCCC(N1)C(=O)OCC(C)(C)C2,IC50,second compound 0.000949 µM,95.3 nM
same,IC50,second compound 0.003 µM,44.3 nM
same,IC50,second compound 0.00949 µM,< 0.949 nM
same,IC50,second compound 0.03 µM,< 0.949 nM
same,IC50,second compound 0.0949 µM,< 0.949 nM
same,IC50,second compound 0.3 µM,< 0.949 nM
same,"viability, T/C","second compound 0.000949 µM, first compound 0.000949 µM",103%
same,"viability, T/C","second compound 0.000949 µM, first compound 0.003 µM",104%
same,"viability, T/C","second compound 0.000949 µM, first compound 0.00949 µM",88%
same,"viability, T/C","second compound 0.000949 µM, first compound 0.03 µM",68.5%
same,"viability, T/C","second compound 0.000949 µM, first compound 0.0949 µM",49.8%
same,"viability, T/C","second compound 0.000949 µM, first compound 0.3 µM",43.3%
same,"viability, T/C","second compound 0.003 µM, first compound 0.000949 µM",96.8%
same,"viability, T/C","second compound 0.003 µM, first compound 0.003 µM",80.2%
same,"viability, T/C","second compound 0.003 µM, first compound 0.00949 µM",82.1%
same,"viability, T/C","second compound 0.003 µM, first compound 0.03 µM",55.1%
same,"viability, T/C","second compound 0.003 µM, first compound 0.0949 µM",37.4%
same,"viability, T/C","second compound 0.003 µM, first compound 0.3 µM",31.4%
same,"viability, T/C","second compound 0.00949 µM, first compound 0.000949 µM",48.1%
same,"viability, T/C","second compound 0.00949 µM, first compound 0.003 µM",42.9%
same,"viability, T/C","second compound 0.00949 µM, first compound 0.00949 µM",31.9%
same,"viability, T/C","second compound 0.00949 µM, first compound 0.03 µM",22.6%
same,"viability, T/C","second compound 0.00949 µM, first compound 0.0949 µM",18.2%
same,"viability, T/C","second compound 0.00949 µM, first compound 0.3 µM",18.2%
same,"viability, T/C","second compound 0.03 µM, first compound 0.000949 µM",14.1%
same,"viability, T/C","second compound 0.03 µM, first compound 0.003 µM",14%
same,"viability, T/C","second compound 0.03 µM, first compound 0.00949 µM",10.6%
same,"viability, T/C","second compound 0.03 µM, first compound 0.03 µM",9.74%
same,"viability, T/C","second compound 0.03 µM, first compound 0.0949 µM",10.6%
same,"viability, T/C","second compound 0.03 µM, first compound 0.3 µM",8.92%
same,"viability, T/C","second compound 0.0949 µM, first compound 0.000949 µM",7.13%
same,"viability, T/C","second compound 0.0949 µM, first compound 0.003 µM",6.88%
same,"viability, T/C","second compound 0.0949 µM, first compound 0.00949 µM",5.95%
same,"viability, T/C","second compound 0.0949 µM, first compound 0.03 µM",5.82%
same,"viability, T/C","second compound 0.0949 µM, first compound 0.0949 µM",6.47%
same,"viability, T/C","second compound 0.0949 µM, first compound 0.3 µM",5.47%
same,"viability, T/C","second compound 0.3 µM, first compound 0.000949 µM",5.71%
same,"viability, T/C","second compound 0.3 µM, first compound 0.003 µM",5.48%
same,"viability, T/C","second compound 0.3 µM, first compound 0.00949 µM",4.65%
same,"viability, T/C","second compound 0.3 µM, first compound 0.03 µM",4.88%
same,"viability, T/C","second compound 0.3 µM, first compound 0.0949 µM",4.85%
same,"viability, T/C","second compound 0.3 µM, first compound 0.3 µM",4.54%
C=CC(=O)Nc1cc(Nc2nccc(-c3cn(C)c4ccccc34)n2)c(OC)cc1N(C)CCN(C)C + CCn1c(-c2cccnc2C(C)OC)c2c3cc(ccc31)N1CCOC(CC(NC(=O)C(C(C)C)N(C)C(=O)C3(F)CCN(C(=O)C#CC(C)(C)N(C)C)CC3)C(=O)N3CCCC(N3)C(=O)OCC(C)(C)C2)C1,IC50,second compound 0.000949 µM,> 1000 nM
same,IC50,second compound 0.003 µM,> 1000 nM
same,IC50,second compound 0.00949 µM,> 1000 nM
same,IC50,second compound 0.03 µM,> 1000 nM
same,IC50,second compound 0.0949 µM,> 1000 nM
same,IC50,second compound 0.3 µM,> 1000 nM
same,"viability, T/C",[1],94.2%
same,"viability, T/C",[2],86.9%
same,"viability, T/C",[3],90.4%
same,"viability, T/C",[4],83.8%
same,"viability, T/C",[5],103%
same,"viability, T/C",[6],95.7%
same,"viability, T/C",[7],101%
same,"viability, T/C",[8],107%
same,"viability, T/C",[9],107%
same,"viability, T/C",[10],109%
same,"viability, T/C",[11],110%
same,"viability, T/C",[12],91.6%
same,"viability, T/C",[13],116%
same,"viability, T/C",[14],107%
same,"viability, T/C",[15],111%
same,"viability, T/C",[16],104%
same,"viability, T/C",[17],121%
same,"viability, T/C",[18],81%
same,"viability, T/C",[19],96.9%
same,"viability, T/C",[20],97.4%
same,"viability, T/C",[21],106%
same,"viability, T/C",[22],91.8%
same,"viability, T/C",[23],101%
same,"viability, T/C",[24],82.2%
same,"viability, T/C",[25],109%
same,"viability, T/C",[26],123%
same,"viability, T/C",[27],119%
same,"viability, T/C",[28],123%
same,"viability, T/C",[29],106%
same,"viability, T/C",[30],78.3%
same,"viability, T/C",[31],105%
same,"viability, T/C",[32],105%
same,"viability, T/C",[33],109%
same,"viability, T/C",[34],103%
same,"viability, T/C",[35],82.8%
same,"viability, T/C",[36],73.1%
O=C(c1ccc(F)c(F)c1Nc1ccc(I)cc1F)N1CC(O)([C@@H]2CCCCN2)C1 + CCn1c(-c2cccnc2C(C)OC)c2c3cc(ccc31)N1CCOC(CC(NC(=O)C(C(C)C)N(C)C(=O)C3(F)CCN(C(=O)C#CC(C)(C)N(C)C)CC3)C(=O)N3CCCC(N3)C(=O)OCC(C)(C)C2)C1,IC50,second compound 0.000949 µM,96.5 nM
same,IC50,second compound 0.003 µM,91.5 nM
same,IC50,second compound 0.00949 µM,86.5 nM
same,IC50,second compound 0.03 µM,90.9 nM
same,IC50,second compound 0.0949 µM,74.2 nM
same,IC50,second compound 0.3 µM,54 nM
same,"viability, T/C",[1],98.9%
same,"viability, T/C",[2],102%
same,"viability, T/C",[3],99.6%
same,"viability, T/C",[4],48.2%
same,"viability, T/C",[5],9.52%
same,"viability, T/C",[6],4.41%
same,"viability, T/C",[7],82.9%
same,"viability, T/C",[8],94.6%
same,"viability, T/C",[9],87.5%
same,"viability, T/C",[10],46.5%
same,"viability, T/C",[11],10.4%
same,"viability, T/C",[12],3.64%
same,"viability, T/C",[13],91.7%
same,"viability, T/C",[14],105%
same,"viability, T/C",[15],89.4%
same,"viability, T/C",[16],44.2%
same,"viability, T/C",[17],9.08%
same,"viability, T/C",[18],4.42%
same,"viability, T/C",[19],100%
same,"viability, T/C",[20],93.9%
same,"viability, T/C",[21],98.9%
same,"viability, T/C",[22],45.7%
same,"viability, T/C",[23],9.74%
same,"viability, T/C",[24],4.04%
same,"viability, T/C",[25],121%
same,"viability, T/C",[26],114%
same,"viability, T/C",[27],86.9%
same,"viability, T/C",[28],37.3%
same,"viability, T/C",[29],9.15%
same,"viability, T/C",[30],3.51%
same,"viability, T/C",[31],119%
same,"viability, T/C",[32],101%
same,"viability, T/C",[33],72.7%
same,"viability, T/C",[34],25.3%
same,"viability, T/C",[35],6.5%
same,"viability, T/C",[36],2.7%
